Experimental findings from patent publication US12606568B2, “SMARCA degraders and uses thereof” (Kymera Therapeutics, Inc., priority 2020, dated 2026) are described below.

One may read the Dmax as the largest share of the target that was removed. For orientation: DC50 means the midpoint of the concentration-degradation curve.

Type in all cases: cell-based
One assay addresses T1, SMARCA4 (Homo sapiens, UniProt P51532).
T1 construct: SMARCA2 and SMARCA4 protein degradation in MV4-11 cells; endogenous in cells; host or cells: MV4-11
Nature of the assay: SMARCA4 Western blot MV4-11 degradation. To be noted: for Dmax: MV4-11, MV4-11 cells, read-out: SMARCA4 MSD MV411 degradation 24 h: average Dmax %; for Dmax / DC50: 24 h; for DC50: read-out: SMARCA4 MSD MV411 degradation 24 h: Mean external-Abs DC50.

In assay [1] the target is T2, SMARCA2 (Homo sapiens, UniProt P51531). Nature of the assay: MSD SMARCA2 degradation in A549 cell line. As to conditions: for Dmax: A549, A549 cells. Further details: endogenous in cells. In outline: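 A549 cells treated 24 h with compound, 3-fold series 1000 nM down to 0.152 nM plus DMSO. RIPA lysates captured on MSD plates, probed with rabbit anti-SMARCA2/BRM (1 µg/ml) then SULFO-TAG anti-rabbit, electrochemiluminescence read. DC50 and 24 h Dmax reported as letter bins.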

In assay [2] the target is T2, SMARCA2. The assay is described as follows: SMARCA2 Western blot MV4-11 degradation. To be noted: for Dmax: MV4-11, MV4-11 cells, read-out: SMARCA2 MSD MV411 degradation 24 h: average Dmax %; for Dmax / DC50: 24 h; for DC50: read-out: SMARCA2 MSD MV411 degradation 24 h: Mean external-Abs DC50. Further details: SMARCA2 and SMARCA4 protein degradation in MV4-11 cells; endogenous in cells; host or cells: MV4-11. On the technique in general: A western blot detects proteins with antibodies after separation by electrophoresis.

T1 sequence (P51532 whole entry): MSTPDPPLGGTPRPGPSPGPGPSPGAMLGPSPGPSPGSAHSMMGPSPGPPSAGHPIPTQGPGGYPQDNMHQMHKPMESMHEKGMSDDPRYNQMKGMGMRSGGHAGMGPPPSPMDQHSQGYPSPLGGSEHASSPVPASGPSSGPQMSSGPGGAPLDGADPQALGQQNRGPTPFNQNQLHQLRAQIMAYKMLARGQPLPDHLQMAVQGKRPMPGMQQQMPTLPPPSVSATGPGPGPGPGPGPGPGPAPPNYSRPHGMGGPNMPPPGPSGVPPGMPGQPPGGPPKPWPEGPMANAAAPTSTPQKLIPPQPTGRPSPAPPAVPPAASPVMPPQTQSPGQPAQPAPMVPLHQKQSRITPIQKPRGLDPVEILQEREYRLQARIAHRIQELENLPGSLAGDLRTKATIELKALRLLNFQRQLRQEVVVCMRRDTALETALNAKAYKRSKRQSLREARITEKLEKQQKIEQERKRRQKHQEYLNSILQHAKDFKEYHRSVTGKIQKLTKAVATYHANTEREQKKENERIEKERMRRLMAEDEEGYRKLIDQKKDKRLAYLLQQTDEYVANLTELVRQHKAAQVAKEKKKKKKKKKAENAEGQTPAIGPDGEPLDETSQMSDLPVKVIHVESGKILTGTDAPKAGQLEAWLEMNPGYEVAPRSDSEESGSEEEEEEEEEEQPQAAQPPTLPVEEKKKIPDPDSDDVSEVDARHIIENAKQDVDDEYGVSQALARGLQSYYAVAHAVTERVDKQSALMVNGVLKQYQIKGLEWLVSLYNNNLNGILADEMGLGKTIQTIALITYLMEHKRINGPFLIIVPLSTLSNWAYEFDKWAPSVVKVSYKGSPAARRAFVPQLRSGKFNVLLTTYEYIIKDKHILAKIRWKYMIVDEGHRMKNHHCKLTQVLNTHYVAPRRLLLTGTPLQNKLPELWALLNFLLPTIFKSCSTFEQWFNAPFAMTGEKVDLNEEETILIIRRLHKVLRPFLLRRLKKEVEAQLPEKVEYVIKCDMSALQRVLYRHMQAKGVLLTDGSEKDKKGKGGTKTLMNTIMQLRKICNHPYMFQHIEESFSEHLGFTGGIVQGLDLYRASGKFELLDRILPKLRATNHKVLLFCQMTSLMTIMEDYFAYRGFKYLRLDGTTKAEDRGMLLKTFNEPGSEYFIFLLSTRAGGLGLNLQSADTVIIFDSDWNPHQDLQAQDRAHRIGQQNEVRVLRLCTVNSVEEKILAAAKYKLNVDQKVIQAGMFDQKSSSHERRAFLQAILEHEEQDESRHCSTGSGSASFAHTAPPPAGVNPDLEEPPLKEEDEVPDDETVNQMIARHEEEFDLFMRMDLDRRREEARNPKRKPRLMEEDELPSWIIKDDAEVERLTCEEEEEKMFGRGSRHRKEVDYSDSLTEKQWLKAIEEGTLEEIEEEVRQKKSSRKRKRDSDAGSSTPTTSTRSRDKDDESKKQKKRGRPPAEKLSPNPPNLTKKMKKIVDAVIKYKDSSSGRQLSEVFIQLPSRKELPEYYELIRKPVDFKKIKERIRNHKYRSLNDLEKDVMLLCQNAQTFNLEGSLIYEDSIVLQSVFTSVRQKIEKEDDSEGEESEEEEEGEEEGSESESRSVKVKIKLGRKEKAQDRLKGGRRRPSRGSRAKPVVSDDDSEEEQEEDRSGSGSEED
T2 sequence (P51531 whole entry): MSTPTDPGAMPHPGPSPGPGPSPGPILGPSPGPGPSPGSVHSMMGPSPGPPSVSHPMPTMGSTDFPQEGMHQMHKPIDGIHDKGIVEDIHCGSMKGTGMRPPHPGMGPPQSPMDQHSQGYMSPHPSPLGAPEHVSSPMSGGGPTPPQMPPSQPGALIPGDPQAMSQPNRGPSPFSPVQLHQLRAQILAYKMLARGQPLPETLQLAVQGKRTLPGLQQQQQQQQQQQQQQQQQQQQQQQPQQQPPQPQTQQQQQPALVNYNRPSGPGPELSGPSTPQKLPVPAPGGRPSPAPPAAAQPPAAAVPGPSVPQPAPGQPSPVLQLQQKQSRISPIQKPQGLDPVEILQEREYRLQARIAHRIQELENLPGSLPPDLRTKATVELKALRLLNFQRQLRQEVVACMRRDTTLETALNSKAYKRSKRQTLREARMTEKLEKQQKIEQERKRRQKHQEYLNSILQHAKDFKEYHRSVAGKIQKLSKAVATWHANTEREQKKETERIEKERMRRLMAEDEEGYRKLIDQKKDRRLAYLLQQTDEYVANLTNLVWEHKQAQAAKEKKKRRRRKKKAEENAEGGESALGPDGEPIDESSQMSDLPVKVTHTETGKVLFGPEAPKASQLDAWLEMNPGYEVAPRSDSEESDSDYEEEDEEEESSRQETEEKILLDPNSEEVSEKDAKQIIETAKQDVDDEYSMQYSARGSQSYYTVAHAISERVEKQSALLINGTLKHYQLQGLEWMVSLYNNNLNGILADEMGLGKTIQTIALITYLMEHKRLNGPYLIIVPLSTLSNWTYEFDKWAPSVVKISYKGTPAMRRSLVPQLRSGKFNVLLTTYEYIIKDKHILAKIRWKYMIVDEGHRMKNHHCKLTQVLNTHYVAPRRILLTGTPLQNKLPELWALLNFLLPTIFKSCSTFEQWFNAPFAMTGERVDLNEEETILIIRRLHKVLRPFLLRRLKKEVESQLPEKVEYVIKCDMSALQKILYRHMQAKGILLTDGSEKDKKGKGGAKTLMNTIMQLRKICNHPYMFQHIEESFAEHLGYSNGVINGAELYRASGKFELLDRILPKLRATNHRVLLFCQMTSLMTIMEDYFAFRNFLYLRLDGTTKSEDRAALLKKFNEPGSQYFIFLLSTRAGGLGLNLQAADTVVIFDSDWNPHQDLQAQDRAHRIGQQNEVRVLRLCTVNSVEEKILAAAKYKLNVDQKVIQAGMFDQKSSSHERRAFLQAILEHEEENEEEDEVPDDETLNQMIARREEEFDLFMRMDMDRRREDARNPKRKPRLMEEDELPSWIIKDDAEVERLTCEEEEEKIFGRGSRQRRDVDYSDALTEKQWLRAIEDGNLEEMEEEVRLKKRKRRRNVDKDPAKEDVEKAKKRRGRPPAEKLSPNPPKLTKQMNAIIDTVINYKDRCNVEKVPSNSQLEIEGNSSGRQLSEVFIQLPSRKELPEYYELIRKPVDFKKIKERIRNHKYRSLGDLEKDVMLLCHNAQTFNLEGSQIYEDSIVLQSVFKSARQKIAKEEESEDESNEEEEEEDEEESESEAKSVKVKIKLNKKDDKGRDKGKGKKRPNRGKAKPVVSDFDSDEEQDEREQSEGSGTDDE

Take `Cc1n[nH]c(C)c1-c1ccc(CNC(=O)[C@@H]2C[C@@H](O)CN2C(=O)[C@@H](NC(=O)[C@H]2CC3(C2)C[C@H](N2CCC(c4cnc(N5C6CCC5CN(c5cc(-c7ccccc7O)nnc5N)C6)nc4)CC2)C3)C(C)(C)C)cc1` (stereo partly drawn) [I-31, (2S,4R)-1-((2S)-2-(6-(4-(2-(3-(3-amino-6-(2-hydroxyphenyl)pyridazin-4-yl)-3,8-diazabicyclo[3.2.1]octan-8-yl)pyrimidin-5-yl)piperidin-1-yl)spiro[3.3]heptane-2-carboxamido)-3,3-dimethylbutanoyl)-N-(4-(3,5-dimethyl-1H-pyrazol-4-yl)benzyl)-4-hydroxypyrrolidine-2-carboxamide]: the Dmax on SMARCA4 is below 50%; on SMARCA2 [1] (24 h), below 50%; at SMARCA2 [2] it was 50 to 70%. The results for the 50% degradation concentration (DC50) at SMARCA4 (MV4-11 cells) and on SMARCA2 [2] (MV4-11 cells) were above 1000 nM and below 100 nM, respectively.
Turning to `Cc1n[nH]c(C)c1-c1ccc(CNC(=O)[C@@H]2C[C@@H](O)CN2C(=O)[C@@H](NC(=O)[C@H]2CC3(C2)C[C@H](N2CCC(c4cnc(N5C6CCC5CN(c5cc(-c7ccccc7O)nnc5N)C6)nc4)CC2)C3)C(C)(C)C)cc1` (stereo partly drawn) [I-32, (2S,4R)-1-((2S)-2-(6-(4-(2-(3-(3-amino-6-(2-hydroxyphenyl)pyridazin-4-yl)-3,8-diazabicyclo[3.2.1]octan-8-yl)pyrimidin-5-yl)piperidin-1-yl)spiro[3.3]heptane-2-carboxamido)-3,3-dimethylbutanoyl)-N-(4-(3,5-dimethyl-1H-pyrazol-4-yl)benzyl)-4-hydroxypyrrolidine-2-carboxamide], at SMARCA4 (MV4-11 cells), the “SMARCA4 MSD MV411 degradation 24 h: average Dmax %” value is reported as “D (D (<50% degradation))” and the DC50 was above 1000 nM. Further, the “SMARCA2 MSD A549 degradation 24 h: Average Dmax %” value at SMARCA2 [1] (A549 cells) is listed as “D (D (<50% degradation))”. Also, at SMARCA2 [2] (MV4-11 cells), the “SMARCA2 MSD MV411 degradation 24 h: average Dmax %” value is reported as “D (D (<50% degradation))” and the DC50 lay within 100 to 500 nM.
Take `Cc1nccn1-c1ccc(CNC(=O)[C@@H]2C[C@@H](O)CN2C(=O)[C@@H](NC(=O)[C@H]2CC3(C2)C[C@H](N2CCC(c4cnc(N5C6CCC5CN(c5cc(-c7ccccc7O)nnc5N)C6)nc4)CC2)C3)C(C)(C)C)cc1` (stereo partly drawn) [I-33, (2S,4R)-1-((2S)-2-(6-(4-(2-(3-(3-amino-6-(2-hydroxyphenyl)pyridazin-4-yl)-3,8-diazabicyclo[3.2.1]octan-8-yl)pyrimidin-5-yl)piperidin-1-yl)spiro[3.3]heptane-2-carboxamido)-3,3-dimethylbutanoyl)-4-hydroxy-N-(4-(2-methyl-1H-imidazol-1-yl)benzyl)pyrrolidine-2-carboxamide]: the Dmax at SMARCA4, at SMARCA2 [1] (24 h) and on SMARCA2 [2] was below 50% throughout. Also, the values for the DC50 at SMARCA4 (MV4-11 cells) and on SMARCA2 [2] (MV4-11 cells) were above 1000 nM and 100 to 500 nM, respectively.
As for `Cn1nccc1-c1ccc(CNC(=O)[C@@H]2C[C@@H](O)CN2C(=O)[C@@H](NC(=O)[C@H]2CC3(C2)C[C@H](N2CCC(c4cnc(N5C6CCC5CN(c5cc(-c7ccccc7O)nnc5N)C6)nc4)CC2)C3)C(C)(C)C)cc1` (stereo partly drawn) [I-35, (2S,4R)-1-((2S)-2-(6-(4-(2-(3-(3-amino-6-(2-hydroxyphenyl)pyridazin-4-yl)-3,8-diazabicyclo[3.2.1]octan-8-yl)pyrimidin-5-yl)piperidin-1-yl)spiro[3.3]heptane-2-carboxamido)-3,3-dimethylbutanoyl)-4-hydroxy-N-(4-(1-methyl-1H-pyrazol-5-yl)benzyl)pyrrolidine-2-carboxamide], the Dmax was 50 to 70% at SMARCA4, 70 to 90% on SMARCA2 [1] (24 h) and 70 to 90% on SMARCA2 [2]. In addition, the DC50 was above 1000 nM on SMARCA4 (MV4-11 cells); 100 to 500 nM at SMARCA2 [1] (A549 cells, 24 h, read-out: SMARCA2 MSD A549 degradation 24 h: Average external-Abs DC50); below 100 nM on SMARCA2 [2] (MV4-11 cells).
